{"source": "patent US12698523B2", "about": "“Enhancement of nucleic acid polymerization by aromatic compounds” (priority 2019, dated 2026)", "key": {"[1]": {"target": "T1, C4760 DNA polymerase (a variant of DPO4, SEQ ID NO:2) (Saccharolobus solfataricus, UniProt Q97W02, A155G/A42V/D156R/D292Y/D294N/E291S/E324K/E325K/E327K/E63R/E79L/G187P/G299W/I153V/I189F/I248T/I295S/K152A/K317Q/K321Q/K56Y/K78D/L293W/M76W/N188Y/P184Q/Q82W/Q83G/R300S/S297Y/S86E/T290K/T301W/V289W/V296Q)", "T1 construct": "made in house", "T1 sequence (Q97W02 other isoform, or with tags, fused parts or gaps with the stated changes)": "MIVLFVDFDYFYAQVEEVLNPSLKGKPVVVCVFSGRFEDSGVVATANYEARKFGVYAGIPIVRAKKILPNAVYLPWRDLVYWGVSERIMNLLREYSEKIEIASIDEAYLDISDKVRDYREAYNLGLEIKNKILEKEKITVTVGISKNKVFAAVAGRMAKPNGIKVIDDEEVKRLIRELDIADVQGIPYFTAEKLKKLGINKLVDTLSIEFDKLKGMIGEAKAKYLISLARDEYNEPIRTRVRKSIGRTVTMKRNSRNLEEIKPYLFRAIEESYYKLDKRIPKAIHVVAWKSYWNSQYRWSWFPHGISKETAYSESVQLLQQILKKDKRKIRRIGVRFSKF", "test": "Primer extension assay with a 411mer amplicon template", "format": "biochemical, Sulfolobus solfataricus", "protocol": "PEM activity of compound 15 was tested in primer extension assays using a 411mer amplicon template. Primer extension reactions included the following reagents: 50 Mm TrisCl, 200 Mm NH4Oac, 20% PEG8K, 5% NMS, 3 nmol PP-60.20, 2 Mm MnCl2, 2 μg Kod single-strand binding protein (SSB), 1 M urea, 250 pmol each XNTP, 1 pmol template, 1 pmol oligonucleotide primer, 1.2 μg purified recombinant C4760 DNA polymerase (a variant of DPO4, see SEQ ID NO:2), and 2 (lane 2) or 3 (lane 3) Mm PEM. 10 μL primer extension reactions were run for 20 minutes at 37° C. and reaction products were analyzed by gel electrophoresis. A representative gel showing primer extension products is presented in FIG. 12 (the position of a 277mer is indicated by the arrow). […] Remarkably, the polymerase is completely dependent upon the addition of PEM to the reaction in order to be capable of synthesizing these lengthy Xpandomer products. Even longer extension products may be obtained by optimizing various reaction parameters, e.g., extension time and/or concentrations of various additives.\nPEM activity of compound 19, was tested in primer extension assays using the 411mer amplicon template. […] 10 μL primer extension reactions were run for 30 minutes at 37° C. and reaction products were analyzed by gel electrophoresis. […]"}, "DNA polymerase [2]": {"tested_on": "DNA polymerase", "test": "Screen of PEMs for enhancement of XNTP polymerization (primer extension reaction, gel electrophoresis)", "format": "biochemical", "conditions": "FIG. 4 gel; no PEM additive: up to only around 14 XNTPs", "excerpt": "The Sequencing by Expansion (SBX) methodology developed by the inventors provides significant performance enhancements in sequence read efficiency and accuracy of Xpandomers relative to native DNA. However, initial transcription of the sequence of the natural DNA template onto the measurable Xpandomer relies on the ability of DNA polymerase to utilize XNTPs as substrates (the generalized structure of an XNTP is discussed herein with reference to FIG. 1A and FIG. 2). […] In an effort to improve the efficiency and accuracy of XNTP polymerization into Xpandomers, several PEMs were screened for the ability to enhance DNA polymerase primer extension reactions using XNTPs as substrates.\nA representative primer extension reaction may include the following reagents: 2 pmol primer, 2.2 pmol 45mer oligonucleotide template, 50 pmol of each XNTP (XATP, XCTP, XGTP, and XTTP), 50 Mm Tris HCl, Ph 6.79, 200 Mm NaCl, 20% PEG, 5% NMS, 0.5 nmol polyphosphate 60.19, 0.3 Mm MnCl2, and 0.6 μg of purified recombinant DNA polymerase protein. Reactions may be run for 1 hr at 23° C. Reaction products (i.e., constrained Xpandomers) are treated to cleave the phosphoramidate bonds, thereby generating linearized Xpandomers. Reaction products may be analyzed using gel electrophoresis on 4-12% acrylamide gels to resolve and visualize Xpandomer products of different lengths. For the PEM screen described above, PEMs were typically tested in the micro to millimolar range.\nAgain, this PEM activity is specific for compound 2, as other unrelated aromatic compounds had no effect (lanes 2-7)."}, "DNA polymerase [3]": {"tested_on": "DNA polymerase", "test": "Sequencing by Expansion (SBX) of primer extension products, nanopore reads aligned to template", "format": "biochemical", "excerpt": "To investigate the accuracy of PEM-dependent enhancement of XNTP polymerization, primer extension products were sequenced using the SBX protocol. Briefly, the constrained Xpandomer products of XNTP polymerization are cleaved to generate linearized Xpandomers. This is accomplished by first quenching the extension reaction with a solution containing 100 Mm EDTA, 2 Mm THPTA, and 2% Tween-20. Then the sample is subjected to amine modification with a solution of 1 M NaHCO3 and 1 M succinic anhydride in DMF. Cleavage of the phosphoramidate bonds is carried out with 37% HCl and linearized Xpandomers are purified with QIAquick columns (QIAGEN, Inc.).\nFor sequencing, protein nanopores are prepared by inserting a-hemolysin into a DphPE/hexadecane bilayer member in buffer B1, containing 2 M NH4Cl and 100 Mm HEPES, Ph 7.4. The cis well is perfused with buffer B2, containing 0.4 M NH4Cl, 0.6 M GuCl, and 100 Mm HEPES, Ph 7.4. The Xpandomer sample is heated to 70° C. for 2 minutes, cooled completely, then a 2 μL sample is added to the cis well. A voltage pulse of 90 Mv/390 Mv/10 μs is then applied and data is acquired via Labview acquisition software.\nSequence data is analyzed by histogram display of the population of sequence reads from a single SBX reaction. […]"}, "C4552 DNA polymerase": {"target": "T2, C4552 DNA polymerase (Saccharolobus solfataricus, UniProt Q97W02, A155G/A42V/D156R/D292Y/D294N/E291S/E324K/E325K/E327K/E79L/G187P/G299W/I153V/I189F/I248T/I295S/K152A/K317Q/K321Q/K56Y/K78D/L293W/M76W/N188Y/P184Q/Q82W/Q83G/R300S/S297Y/S86E/T290K/T301W/V289W/V296Q)", "T2 construct": "made in house", "T2 sequence (Q97W02 other isoform, or with tags, fused parts or gaps with the stated changes)": "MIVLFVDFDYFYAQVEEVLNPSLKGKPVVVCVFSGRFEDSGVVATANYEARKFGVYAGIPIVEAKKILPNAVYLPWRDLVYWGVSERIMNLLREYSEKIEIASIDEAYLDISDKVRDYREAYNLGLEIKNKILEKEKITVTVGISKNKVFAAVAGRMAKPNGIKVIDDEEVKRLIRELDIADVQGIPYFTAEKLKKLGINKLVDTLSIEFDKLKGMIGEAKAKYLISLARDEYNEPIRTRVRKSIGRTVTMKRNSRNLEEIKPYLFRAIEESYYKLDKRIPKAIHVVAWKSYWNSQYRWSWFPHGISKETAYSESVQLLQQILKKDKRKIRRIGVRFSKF", "test": "Primer extension assay with three 100mer templates derived from the HIV1, 2 and 3 genomes", "format": "biochemical, Sulfolobus solfataricus", "conditions": "0.5 Mm PEM; HIV1, HIV2, HIV3 100mer templates; 30 minutes at 23° C.; FIG. 9", "protocol": "PEM activity of compounds 9-11 was tested in primer extension assays using three 100mer templates, derived from the HIV1, 2, and 3 genomes. Primer extension reactions included the following reagents: 75 Mm TrisCl, Ph 8.44, 175 Mm NH4Oac, 20% PEG8K, 5% NMS, 0.8 nmol PP-60.20, 0.6 Mm MnCl2, 2.3 μg Tth single-strand binding protein (SSB), 0.5 M or 1 M urea, 200 pmol each XNTP, 1.1 pmol template, 1 pmol oligonucleotide primer, 1.2 μg purified recombinant C4552 DNA polymerase, and 0.5 Mm PEM. 10 μL primer extension reactions were run for 30 minutes at 23° C. and reaction products were analyzed by gel electrophoresis."}, "[4]": {"target": "T3, C4552 (variant of DPO4 DNA polymerase, SEQ ID NO:1) (Saccharolobus solfataricus, UniProt Q97W02, A155G/A42V/D156R/D292Y/D294N/E291S/E324K/E325K/E327K/E79L/G187P/G299W/I153V/I189F/I248T/I295S/K152A/K317Q/K321Q/K56Y/K78D/L293W/M76W/N188Y/P184Q/Q82W/Q83G/R300S/S297Y/S86E/T290K/T301W/V289W/V296Q)", "T3 construct": "made in house", "test": "XNTP polymerization on longer templates (88, 127, 227, 277 nucleotides)", "format": "biochemical, Sulfolobus solfataricus", "conditions": "1 Mm compound; templates of 88, 127, 227, 277 nucleotides; 1-2 hr at 23° C.; FIG. 8", "protocol": "Following the success of accurately replicating templates of up to 80 nucleotides in length into Xpandomers, XNTP polymerization reactions were conducted using four longer templates, consisting of 88, 127, 227, and 277 nucleotides in length. A variant of DPO4 DNA polymerase, referred to as C4552 (SEQ ID NO:1), was used in these polymerization reactions and reaction conditions were optimized for C4552 activity in the presence of PEM compound 1. Other suitable DPO4 polymerase variants include, but are not limited to, those of SEQ ID NO:s 2-5. In addition to 1 Mm compound 1, reaction additives included […] and 2.75 μg single-strand binding protein (Eco SSB). Extension reactions were carried out with 0.85 pmol template, 0.5 pmol oligonucleotide primer, and 1 nmol each XNTP in a final volume of 10 μL. Reactions were run in buffer composed of 50 Mm TrisCl, Ph 8.84, 200 Mm NH4Oac, and 20% PEG8K supplemented with 5% NMS, polyphosphate PP-60.20 in amounts of 3 or 4 nmol, and 2 Mm MnCl2. 1.2 μg purified recombinant DNA polymerase protein was used in each extension reaction and reactions were run for 1-2 hr at 23° C. […] Lanes 1-5 and 6-10 represent identical extension reactions with the exception of the amount of PP-60.20 additive, which was 3 nmol in lanes 1-5 and 4 nmol in lanes 6-10."}}}
{"smiles": "CCOC(=O)c1cc(-c2cn(-c3ccc(O)c(C(=O)O)c3)nn2)nc(-c2cn(-c3ccc(O)c(C(=O)O)c3)nn2)c1", "note": "[Compound 15, 5,5′-((4-(ethoxycarbonyl)pyridine-2,6-diyl)bis(1H-1,2,3-triazole-4,1-diyl))bis(2-hydroxybenzoic acid)]", "values": [{"measurement": "polymerization of XNTPs into lengthy Xpandomer copies (PEM activity)", "setting": "[1]; 2 or 3 Mm PEM, 20 minutes at 37° C., FIG. 12", "result": "enables polymerization of XNTPs into lengthy Xpandomer copies of the 411mer template in a manner comparable to that of compound 14"}]}
{"smiles": "NC(=O)c1cc(-c2cn(-c3ccc(C(=O)O)c(O)c3)nn2)nc(-c2cn(-c3ccc(C(=O)O)c(O)c3)nn2)c1", "note": "[Compound 19, 4,4′-((4-carbamoylpyridine-2,6-diyl)bis(1H-1,2,3-triazole-4,1-diyl))bis(2-hydroxybenzoic acid)]", "values": [{"measurement": "polymerization of XNTPs into lengthy Xpandomer copies (PEM activity)", "setting": "[1]; 0.5, 1, or 1.5 Mm PEM, 30 minutes at 37° C., FIG. 14", "result": "enables polymerization of XNTPs into lengthy Xpandomer copies of the 411mer template, albeit in a manner less efficient than that of compound 14"}]}
{"smiles": "O=C(O)c1ccc(-n2cc(-c3cccc(-c4cn(-c5ccc(C(=O)O)c(O)c5)nn4)n3)nn2)cc1O", "note": "[Compound 1, 4,4′-(pyridine-2,6-diylbis(1H-1,2,3-triazole-4,1-diyl))bis(2-hydroxybenzoic acid)]", "values": [{"measurement": "DNA polymerase-mediated primer extension with XNTPs (length of extension products)", "setting": "DNA polymerase [2]", "result": "considerably longer extension products"}, {"measurement": "accuracy of SBX sequence reads", "setting": "DNA polymerase [3]; 45mer template, FIG. 6B, without additive reads not accurate past around base 18", "result": "increased the accuracy of the sequence reads across the entire length of the 45mer template"}, {"measurement": "accuracy of SBX sequence reads", "setting": "DNA polymerase [3]; 60mer and 80mer templates, FIGS. 7A and 7B", "result": "enabled accurate sequence reads completely to the end of each of these longer templates"}, {"measurement": "polymerization of XNTPs into full length Xpandomer copies (PEM activity)", "setting": "C4552 DNA polymerase", "result": "enables polymerization of XNTPs into full length Xpandomer copies of the three different 100mer templates"}, {"measurement": "polymerization of XNTPs into Xpandomer copies of long templates", "setting": "[4]", "result": "complete Xpandomer copies of each longer template"}]}
